In ChEMBL document CHEMBL3507680, “University of Dundee, Gates Library screen for HepG2 cell viability”:

assay: Human HepG2 cell viability assay in 384 well format; format: toxicity, cell-based; parameters: dose 125 nL, time 70.5 hour; cytotoxicity at 70.5 h: concentration not given beside the values; conditions: HepG2 cells, read-out: Inhibition

SMILES	cytotoxicity at 70.5 h [%]
CN(C(=O)c1ccnn1C)[C@@H]1CCC[C@@H](Oc2ccccc2)[C@@H]1O	-3.62
Cc1ccccc1CC(=O)N[C@@H]1CCC[C@@H](N2CCNC(=O)C2)[C@@H]1O	-6.12
CN(C(=O)c1cn(C)cn1)[C@@H]1CCC[C@@H](Oc2ccccc2)[C@@H]1O	-2.57
CC(=O)N1CCC(c2cnc(-c3c(C)n[nH]c3C)cn2)CC1	-3.69
CNC(=O)c1cn[nH]c1C1(C)CCCN(Cc2nccn2C(C)C)C1 (stereo not given)	-2.7
NC(=O)CN1CCCC(Cc2ccc(N)nn2)C1 (stereo not given)	36.2
Cn1ccc(C(=O)N2CCOC(c3ccccn3)C2)cc1=O (stereo not given)	6.02
COc1cccc(-c2ccnc(C3CCNCC3)c2)c1	7.37
CCc1ccccc1Nc1noc2c1CN(C(=O)CCOC)CC2	18.8
CCc1ccccc1Nc1noc2c1CN(C(=O)C1CCCO1)CC2 (stereo not given)	-3.46
COc1cccc(CC(=O)N2CCCC2c2nc(C)c(C)c(O)n2)c1 (stereo not given)	-2.86
Cc1ccc(CN(C)C(=O)NCC(C)(C)CCS(C)(=O)=O)s1	-1.02
Cc1nc(Cn2cncc(Br)c2=O)no1	6.27
O=C(c1cccc(F)c1)N(CCCO)S(=O)(=O)c1cccs1	-8.04
CCN(C)S(=O)(=O)N1CCCC(c2nc(-c3ccccc3)c[nH]2)C1 (stereo not given)	14.3
COC(=O)CCN(C)C(=O)c1ccc(-c2cscn2)cc1	4.45
O=C(CCCc1nc2ccccc2[nH]1)N1CCCC1c1ccncc1 (stereo not given)	32.6
O=c1cc(CN(Cc2ccco2)C2CC2)nc2ccc(Br)cn12	-3.54
CCn1cnnc1CNC(=O)NC(c1ccccc1)C1CCCC1 (stereo not given)	-7.51
O=c1cc(CN(CCO)C2CC2)nc2ccc(Cl)cn12	14.2
Cc1noc(C2CCN(C(=O)c3cc(Cl)c(Cl)n3C)CC2)n1	-2.97
CCOCCC(=O)NCCNc1nccc(C(F)(F)F)n1	2.23
CS(=O)(=O)N1CCCC(c2nc(-c3ccccc3)c[nH]2)C1 (stereo not given)	-7.34
CCOc1cncc(NCCc2nnc3ccccn23)n1	-4.67

SMILES	cytotoxicity at 70.5 h [%]
O=C(Cc1ccon1)Nc1cncc(Br)c1O	-0.318
CN(C)C(=O)c1ccc(-c2cscn2)cc1	1.52
O=C(Cc1ccn[nH]1)Nc1cncc(Br)c1O	-2.7
O=S(=O)(c1ccccc1Cl)N1CCCC(c2ncc[nH]2)C1 (stereo not given)	-3.85
O=C(Nc1cncc(Br)c1O)c1ccon1	-2.33
CCc1nnc(CNc2ccc(CC(=O)N3CCSCC3)cc2)o1	13.8
Cc1noc(C2CCCN(C(=O)c3cc(Cl)cn3C)C2)n1 (stereo not given)	-4.77
COc1ccccc1OCc1nc(C(C)C)no1	12.8
CCc1noc(CNc2cccc(C(=O)N3CCSCC3)c2)n1	0.659
CC(NCCCn1ccnc1)c1ccc(N2CCCS2(=O)=O)cc1 (stereo not given)	31
CC(NC(=O)CN1CCN(Cc2ccc(Br)s2)CC1)c1ccccc1 (stereo not given)	25.3
Cc1noc(C(C)C)c1C(=O)NCC1CCN(c2ccccc2)C1 (stereo not given)	6.36
Cc1noc(C)c1C(=O)NCC1CCCCN1Cc1ccccc1 (stereo not given)	-1.55
CN(Cc1nnc2ccccn12)C(=O)NC1CCCCC1	-4.44
CN(Cc1nnc2ccccn12)C(=O)CC1CCCCC1	-8.16
CC(C)(C)CC(NC(=O)c1nc(=O)[nH][nH]1)c1ccc(F)cc1 (stereo not given)	-3.76
O=C(CCS(=O)(=O)C1CCCC1)N1CCC(O)(C(F)(F)F)C1 (stereo not given)	19.5
Cc1ccc(C(=O)Nc2cc(C(N)=O)ccc2CN(C)C)cc1Cl	-7.51
Cc1noc(C(C)C)c1C(=O)NCC1CCCN1Cc1ccccc1 (stereo not given)	9.45
Cc1nc(C(C)NC(=O)NCc2nccn2CC(C)C)cs1 (stereo not given)	4.05
CC(C)Cn1ccnc1CNC(=O)NC(C)c1nccs1 (stereo not given)	1.43
O=C(Nc1cccnc1)Nc1ccn(CC(F)F)n1	7.38
CCOc1ccc(NC(=O)c2scnc2CC)cc1CO	1.88
COCC(O)CN1CCC(NC(=O)c2ccccc2Cl)CC1 (stereo not given)	-0.503

SMILES	cytotoxicity at 70.5 h [%]
N#CCCN(C(=O)COC1CCCC1)C1CC1	-0.353
CCN(C(=O)Cc1ccc(NCc2nccn2C)cc1)c1ccccc1	-6.33
Cc1nc2n(n1)CC(NCCCc1nc(-c3cccs3)no1)CC2 (stereo not given)	4.3
OCCN1CCCCC1C1OCCO1 (stereo not given)	0.562
CNC(=O)CN1CCC(CN(C)CCSc2ccccc2)CC1	-0.471
C1CCN(CCN2CCCCC2C2OCCO2)CC1 (stereo not given)	3.91
Cc1nc(C(C)C)sc1C(=O)N1CCC(C(N)=O)CC1	6
Cc1noc(CN2CCN(c3cncc(Cl)n3)CC2)n1	-4.58
CN(C)c1cc(C(F)(F)F)nc(N2CCCC2c2ccccn2)n1 (stereo not given)	-5.01
Clc1cncc(N2CCN(Cc3ccon3)CC2)n1	-3.48
Cc1nc(CN2CCN(c3cncc(Cl)n3)CC2)no1	-9.09
Cc1cccc(S(=O)(=O)NC(=O)CN(C)Cc2ccccc2)c1	1.15
Cc1n[nH]c(C)c1CNC(=O)NC1CCCN(c2ccccc2F)C1 (stereo not given)	6.33
Cc1[nH]ncc1C(=O)NCC1CCC2(CC1)OCCO2	-5.66
O=C(CCNC1(c2nccs2)CCCC1)N1CCOCC1	7.56
CC(NCCNS(=O)(=O)c1cccc(Cl)c1)C1CCOCC1 (stereo not given)	-6.77
COc1ccnc(N2CCCN(Cc3ncc(C(C)C)o3)CC2)n1	-4.8
O=C(NCCNC1CCN(c2nccs2)CC1)c1cccs1	-9.14
O=C(Cn1cc(C2CC2)nn1)N(Cc1cccs1)CC1CCCO1 (stereo not given)	10.4
CNS(=O)(=O)c1ccc(CNC(=O)C2CCCO2)cc1 (stereo not given)	27.2
N#Cc1ccc(NCCC(=O)N2CCCc3ccccc32)nc1	-6.4
CN(C)C(=O)CNC(=O)c1cc2ccccc2nc1N1CCCC1	-7.99
O=C(NCCCn1cccn1)c1nc2ccccc2[nH]1	-10.1
Cn1cc(CCNC(=O)c2cc3ccccc3nc2N2CCCC2)cn1	3.18

SMILES	cytotoxicity at 70.5 h [%]
CC(C)NC(=O)NC(C)c1nc(-c2ccccc2)cs1 (stereo not given)	-6.77
CC(NC(=O)NC1CC1)c1nc(-c2ccccc2)cs1 (stereo not given)	-8.69
COc1ccc2c(c1)NC(=O)C2OC(=O)Cc1ccccc1C (stereo not given)	31.3
Cn1cc(NS(=O)(=O)CC2CCCCO2)cn1 (stereo not given)	-8.18
O=S(=O)(CC1CCCCO1)Nc1cnn(CC(F)F)c1 (stereo not given)	-7.78
Cn1nc2c(cc1=O)CN(c1ncnc3sccc13)CC2	5.63
CCn1nc2c(cc1=O)CN(c1ncnc3sccc13)CC2	-11.4
Cc1nc(CNc2cccc(Cl)c2Cl)cs1	16.5
CC(C)(C)CCCC(=O)Nc1ccnn1C1CCS(=O)(=O)C1 (stereo not given)	-6.88
Cc1c(COC(C)C)cccc1NC(=O)N1CCCC(CO)C1 (stereo not given)	-3.17
Cc1nc(C(=O)NS(=O)(=O)c2cccc(C#N)c2)cs1	17.6
COc1cc(CNc2nc(N3CCOCC3)ns2)cc(OC)c1OC	-5.63
Cc1csc(N2CCCN(c3cc(C)nc(C)c3C#N)CC2)n1	-4
Cc1cc(N2CCCC2)c(C#N)c(C)n1	17.6
Cc1ccccc1C(NC(=O)NCC1(CO)CC1)C1CC1 (stereo not given)	-1.18
O=C(c1ccon1)N1CCN(c2ccncc2Cl)CC1	-4.94
Cc1cccc(CCC(=O)Nc2ccnn2C2CCS(=O)(=O)C2)c1 (stereo not given)	17
COc1c(Cl)cccc1NCc1csc(C)n1	-8.65
CN(CCCNC(=O)C1CCc2cn[nH]c2C1)c1ccccc1 (stereo not given)	-4.99
CCOC(C)c1nc(CNc2cccc(Cl)c2OC)cs1 (stereo not given)	8.97
Cc1csc(CNC(=O)NCC(C)Cn2nc(C)cc2C)n1 (stereo not given)	-5.06
O=C(Cc1cccnc1)NCCS(=O)(=O)c1ccccc1F	-7.32
CCC(NCCn1cc(C)cn1)C(=O)Nc1cc(C)on1 (stereo not given)	10.8
CSCCC(NC(N)=O)C(=O)NCc1cnn(-c2ccccc2)c1 (stereo not given)	8.76

SMILES	cytotoxicity at 70.5 h [%]
CCn1cnnc1CNC(=O)N1CCOC(c2ccc(F)cc2)C1 (stereo not given)	-3.32
CC(Cc1cccc(F)c1)C(=O)NS(=O)(=O)c1cnn(C)c1 (stereo not given)	-1.2
O=C(CC1CCCC1)NCCNCc1cccc2c1OCCO2	4.62
O=C(Nc1ccncc1)NC1CCN(c2ccccc2OC(F)F)C1 (stereo not given)	1.15
COC(CNC(=O)c1ccc[nH]1)c1cccc(Cl)c1 (stereo not given)	10.5
CCN(Cc1ccoc1)c1ncc(S(N)(=O)=O)s1	-7.46
Cc1cc(CNCC2(O)CCOCC2)ccc1Br	4.13
O=C(Nc1ccccn1)NC1CCN(c2ccccc2OC(F)F)C1 (stereo not given)	-2.08
COCCN1CCC(NC(=O)C/C=C/c2ccc(C(C)C)cc2)CC1	2.87
CC(C)c1ccc(/C=C/CC(=O)NC2CCN(C(N)=O)CC2)cc1	-9.67
CC(C(=O)NC1(C#N)CCCCC1)N1CCc2c(ncn2C2CC2)C1 (stereo not given)	-8.12
CCc1nc(CCNc2ncccc2C#N)sc1C	-8.12
Cc1cc(NC(=O)C(C)NCCn2cccn2)no1 (stereo not given)	-0.681
O=C(NCCNCc1cccc2c1OCCCO2)C1CCCC1	14.5
COCCN1CCC(CNC(=O)c2ccnc(-n3ccnc3)c2)CC1	-0.309
CN(CCOc1ccc(F)cc1)S(=O)(=O)c1cnn(C)c1	-8.4
CC(NC(=O)NCCCn1ccnc1)c1nncn1C (stereo not given)	-2.89
NC(=O)C1CCN(C(=O)NC2CCc3cc(Cl)ccc32)CC1 (stereo not given)	-7.29
CC1CCN(C(=O)c2occc2COc2cccc(C#N)c2)CC1	8.42
O=C(c1cc2c(s1)CCCC2)N1CCc2nc(C3CCCN3)ncc2C1 (stereo not given)	6.76
CC(C)(C)n1cc(CNC2CCN(C(=O)c3ccoc3)CC2)cn1	-1.77
CC(C)[C@H](N)C(=O)N1CCSc2ccccc2C1	-3.37
NC1(c2nc(C(F)(F)F)cc(=O)[nH]2)CCCCC1	0.93
COc1ccccc1OCCc1cc(C2CCNC2)n[nH]1 (stereo not given)	-6.36
